Data as given in patent US4179337A, “Non-immunogenic polypeptides” (priority 1977, dated 1979).
Values belong to the substance of their own block, whether it stands above or below them.

Experiments:
[1] = test system: rabbit antiserum after immunization with catalase; experiment: Gel diffusion test for precipitating antibodies; format: binding; conditions: antiserum against native catalase, tested undiluted and 1/10
Method: (§1) Immunization - New Zealand, white adult female rabbits were immunized by the intravenous route with a 1.5 mg/ml. stock solution of beef liver catalase for a period of 4 weeks by which time it received a total of 55 mg. of catalase. Rabbits were bled by cardiac puncture 7 and 14 days after completion of the immunization schedule. Approximately 1 month later, rabbits were injected with 5 mg. of the appropriate antigen and bled by cardiac puncture 1 week after receiving the booster injection.
(§2) Rabbit antisera obtained after initial or booster immunization were assayed in vitro for precipitating (1) and complement fixing activities (2,3). Each antiserum (undiluted, 1/10, 1/50) was set up in gel diffusion plates (1.0% Noble Agar in physiological saline with 1.0% azide added as preservative) against both catalase and PEG-HTA-catalase solutions (concentrations ranging from 1000γ/ml. to 5γ/ml). Plates were incubated at room temperature for 48 hours and at 4° C. for 3-4 days. Complement fixing activity of the heat inactivated, sheep red blood cell absorbed antisera was determined using the Microtiter Complement-fixation test (Cooke Engineering Co., Alexandria, Virginia). Antisera were run 1:1 and 1:10 dilutions against catalse and PEG-HTA-catalase dilutions ranging from 1000γ/ml. down to 15γ/ml. Plates were read for presence or absence of hemolysis following incubation at 37° C. for 30 minutes.

[2] = test system: rabbit antiserum after immunization with catalase; experiment: Microtiter complement-fixation test; format: binding; conditions: initial and booster sera
Method: as §1, §2

[3] = test system: rats made diabetic utilizing alloxan injections; experiment: PEG insulin rat assay, alloxan diabetic rats; format: in vivo; parameters: % Drop Over Control: concentration or dose not given beside the values
[4] = test system: test rabbits; experiment: PEG-HTA-insulin assay, blood sugar levels in test rabbits (Glucostat method); format: in vivo, rabbit; conditions: after 3 hours, same amount of insulin injected
Method: Preliminary insulin and PEG-HTA-insulin containing the same amount of insulin were injected into test rabbits and blood sugar levels measured by the "Glucostat" method (Worthington Biochemical Corporation, Freehold, N. J.).

[5] = Insulin activity (animal assay); conditions: in vivo
[6] = test system: insulin antiserum; experiment: PEG-insulin immunoassay (radioimmunoassay); format: binding
Method: PEG-HTA-Insulin was prepared in accordance with Example II and tested for antigenic activity by the method of […]

[7] = intravenous, 8 hrs (animals fed after 5 hrs)

Substance: Hydrogen-peroxide: hydrogen-peroxide oxidoreductase [Unmodified catalase]
- precipitating antibodies, gel diffusion [1]: positive
- complement-fixing activity [2]: positive

Substance: Insulin PEG-4-Hydroxy-1,3,5-Triazin-6-yl Conjugate [PEG HTA Insulin (pH 9.2)]
- Blood Glucose Level ([3]; intravenous, 0 hrs (initial level)): 305 mg/100 ml.
- % Drop Over Control ([3]; intravenous, 2 hrs): 76.2%
- Blood Glucose Level ([3]; intravenous, 2 hrs): 72.5 mg/100 ml.
- Drop Over Initial Level ([3]; intravenous, 2 hrs): 232 mg/100 ml
- % Drop Over Control ([3]; intravenous, 4 hrs): 66.7%
- Blood Glucose Level ([3]; intravenous, 4 hrs): 101.5 mg/100 ml.
- Drop Over Initial Level ([3]; intravenous, 4 hrs): 203.5 mg/100 ml
- % Drop Over Control [3, 7]: 24.6%
- Blood Glucose Level [3, 7]: 230 mg/100 ml.
- Drop Over Initial Level [3, 7]: 75 mg/100 ml

- precipitating antibodies, gel diffusion [1]: no evidence of any cross-reactions
- complement-fixing activity [2]: negative
Substance: Hydrogen Peroxide: Hydrogen-Peroxide Oxidoreductase (1.11.1.6; "Catalase")-2-PEG-4-Hydroxy-1,3,5-Triazin-6-yl Conjugate [modified catalase]

Substance: insulin [Unmodified Insulin]
- Blood Glucose Level [4]: 20 % of normal
- Insulin Activity (animal assay) [5]: 137 μ units/ml.
- Insulin Antibodies Activity (radioimmunoassay) [6]: 127 μ units/ml.
- Blood Glucose Level ([3]; intramuscularly, 0 hrs (initial level)): 410 mg/100 ml.
- % Drop Over Control ([3]; intramuscularly, 1 hr): 32.9%
- Blood Glucose Level ([3]; intramuscularly, 1 hr): 295 mg/100 ml.
- Drop Over Initial Level ([3]; intramuscularly, 1 hr): 135 mg/100 ml
- % Drop Over Control ([3]; intramuscularly, 2 hrs): 34.1%
- Blood Glucose Level ([3]; intramuscularly, 2 hrs): 270 mg/100 ml.
- Drop Over Initial Level ([3]; intramuscularly, 2 hrs): 140 mg/100 ml
- % Drop Over Control ([3]; intramuscularly, 4 hrs): 29.2%
- Blood Glucose Level ([3]; intramuscularly, 4 hrs): 290 mg/100 ml.
- Drop Over Initial Level ([3]; intramuscularly, 4 hrs): 120 mg/100 ml
- % Drop Over Control ([3]; intramuscularly, 6 hrs): 02.4%
- Blood Glucose Level ([3]; intramuscularly, 6 hrs): 400 mg/100 ml.
- Drop Over Initial Level ([3]; intramuscularly, 6 hrs): 10 mg/100 ml
